Primed or numbered codes have the meaning given here. No end group written: not given here. *: point of attachment. Dabcyl′ = N-terminal Dabcyl quencher, CN(C)c1ccc(/N=N/c2ccc(C(=O)*)cc2)cc1 Where only a bound is given, the exact number is not on record here.

Here are results for 14 molecules from US12366572B2, “Activation of bioluminescence by structural complementation” (Promega Corporation, priority 2013, dated 2025).

In one data set the target is BRD4/Histone H3.3 (Homo sapiens, UniProt O60885). The data set is described as follows: Inhibition of NLpoly11S-BRD4 / Histone H3.3-NLpep114 interaction in HEK293T cells (Example 128).
A further data set deals with HELA cells. Description: NLpep86-tagged firefly luciferase constructs in HELA cells detected with NLpoly11S reagent or Fluc activity (Example 141). The format is cell-based. The following applies: 48 hours after transfection. Here is the method:
Validating the Use of Spontaneously Interacting NLpep86 as an Epitope Tag for Proteins Degraded by the Proteasome Experiments were conducted during development of embodiments of the present invention to validate the use of NLpep86 as a tag to monitor expression levels of proteins degraded by the proteasome. To do this, Nlpep86 was fused to firefly luciferase variants that were also fused to either one or more PEST, CL1 or ubiquitin sequences (pBC21, 22, 24-29). Each of these constructs is expected to undergo proteasome-mediated turnover to varying degrees following expression from a mutant CMV promoter (d1CMV).
The constructs pBC21, 22, 24-29 and control constructs expressing untagged firefly luciferase or untagged firefly luciferase fused to a PEST sequence (ATG082 and ATG083) were transiently transfected into HELA cells plated at 10,000 cells per well in a 96-well plate using 100 μL of DMEM+10% FBS. […] Protein expression levels were quantified in replicate wells for each construct by detecting firefly luciferase activity or by adding a detection reagent containing NLpoly11S (purified NLpoly11S added to NanoGlo®).
After a 48 hour incubation, 100 uL NanoGlo® […] reagent (90 ul of NLpoly11S in 50 ml of NanoGlo® assay reagent was added to each well and incubate for 3 minutes with shaking. Luminescence was then read on GloMax luminometer (0.5 sec/well).

The subject of data set [1] is NLpoly11S. Description: Dark and quencher peptides: background signal from NLpoly11S (Example 153). The following applies: NLpoly11S in NanoGlo reagent, 5 min. Type of data set: biochemical. How it is done:
A purified sample of NLpoly11S was diluted into NanoGlo reagent to give a final concentration of 2 uM. Pep86 is a high affinity luminogenic peptide and was used to induce maximum signal for NLpoly11S. Pep86 was prepared at 1 nM in PBS (pH 7.2) for a working solution. Dark peptide and quencher peptides (FIG. 180) were dissolved to 1 mM (or lower) in either PBS pH 7.2 or 150 mM NH4HCO3 and added in equal volume to the NanoGlo/NLpoly11S and then samples were read on a Tecan Infinite F500 reader using a 5 min time point.

The subject of a further data set is NLpoly 5P. The data set is described as follows: Titration of NLpoly 5P with NLpep88-HT (Example 47). The format is biochemical. The following applies: serial dilutions of NLpep88-HT lysate.
In data set [2] the test system is NLpoly11S. Description: Binding of NLpoly11S to synthetic NLPep78/79 and N- or C-terminal HaloTag fusions (Examples 107, 108). The following applies: E. coli lysates, NanoGlo + 100 uM Fz. How it is done:
Fusions of NLpep78-HaloTag (78-HT) and HaloTag-NLPep78 (HT-78) were quantitated, with a GST-HaloTag® fusion (GST-HT) as a control, by labeling E. coli lysates with the HaloTag-TMR® ligand, separated by SDS-PAGE, and scanned on Typhoon. A standard curve was then created using known concentrations of GST-HT standard, and band intensities of 78-HT and HT-78 were used to determine their concentrations.
E. coli lysates containing NLpoly11S were diluted 1:107 into PBS pH 7+0.1% Prionex. Serial dilutions of 78-HT, HT-78, and synthetic NLpep78 were made in PBS pH 7+0.1% Prionex. 20 uL NLpoly11S and 20 μL of one of the NLPep were mixed and incubated at ambient temperature for 5 minutes. 40 uL NanoGlo® reagent (Promega Corporation)+100 uM Fz were added, and the samples incubates at ambient temperature for 5 min. Luminescence was measured on GlomaxMulti+ using 0.5 s integration. Data was fit to one-site, specific binding using GraphPad Prism to determine Bmax and Kd.
Fusions of NLpep79-HaloTag (79-HT) and HaloTag-NLPep79 (HT-79) were quantitated, with a GST-HaloTag® fusion (GST-HT) as a control, by labeling E. coli lysates with the HaloTag-TMR® ligand, separated by SDS-PAGE, and scanned on Typhoon. A standard curve was then created using known concentrations of GST-HT standard, and band intensities of 79-HT and HT-79 were used to determine their concentrations.
E. coli lysates containing NLpoly11S were diluted 1:107 into PBS pH 7+0.1% Prionex. Serial dilutions of 79-HT, HT-79, and synthetic NLpep79 were made in PBS pH 7+0.1% Prionex. 20 uL NLpoly11S and 20 μL of one of the NLPep were mixed and incubated at ambient temperature for 5 minutes. 40 uL NanoGlo® reagent (Promega Corporation)+100 uM Fz were added, and the samples incubates at ambient temperature for 5 min. Luminescence was measured on GlomaxMulti+ using 0.5 s integration. Data was fit to one-site, specific binding using GraphPad Prism to determine Bmax and Kd.

The test system of a further data set is NLpoly11S and NLpep114. Description: Inhibition of NLpoly11S/NLpep114 binding by dark peptides (Examples 136, 137). The format is biochemical. The following applies: for Signal of dark peptide with NLpoly11S on its own: no NLpep114 (Example 137). Here is the method: In FIG. 183A, 50 nM NLpoly11S was mixed with […] NLpep114 and 37.5 μM dark peptide (DP) candidate (Q-162, A-162, K-162 or E-162). NanoGlo® assay reagent (Promega Corporation) was added and incubated for 5 minutes. Luminescence was detected. In FIG. 183B, 50 nM NLpoly11S in assay buffer (PBS pH7+0.01% Prionex+1 mM DTT+0.005% Tergitol) was mixed with 7.5 μM NLpep114 (also in assay buffer) and variable amounts of dark peptide (DP) candidates Q-162 or K-162 (also in assay buffer). NanoGlo® assay reagent (Promega Corporation) was added and incubated for 5 minutes. Luminescence was detected on a Tecan Infinite F500 reader; 100 ms integration time; 5 min time point used.
In FIG. 184A, 5 nM NLpoly11S was mixed with 500 nM NLpep114 and variable amounts of a dark peptide (DP) candidate Q-162 or A-162 (n=3). NanoGlo® assay reagent (Promega Corporation) was added and incubated for 5 minutes. Luminescence was detected.
In FIG. 184B, 5 nM NLpoly11S in assay buffer was mixed with variable amounts of dark peptide (DP) candidates Q-162 or A-162 in assay buffer (no NLpep114)(n=3). NanoGlo® assay reagent (Promega Corporation) was added and incubated for 5 minutes. Luminescence was detected.

Data set [3] has as its system circularly permuted Nluc (CP Nluc). Description: Inhibition of circularly permuted NanoLuc luciferase by dark peptides (Example 138). Type of data set: biochemical. The following applies: synthetic dark peptide dose-response, NanoGlo reagent, 5 min. Here is the method: Recombinant CP Nluc was prepared as a soluble fraction of an E. coli 5×-concentrated lysate (T7-promoter; overnight expression). A 10,000-fold dilution of the CP Nluc in Assay Buffer (PBS pH 7/0.01% Prionex/1 mM DTT/0.005% Tergitol) was used. Synthetically-derived dark peptides were prepared across a range of concentrations, also in the Assay Buffer. Reactions were set up using 30 μL of CP NLuc and 60 μL of Dark peptide and assayed by adding 90 μL NanoGlo® assay reagent (Promega Corporation). Luminescence was measured (5 min) on a Tecan Infinite F500 reader (100 ms integration). Three replicates were used for Dark peptide samples. Two replicates were used for buffer controls (acetic acid from peptide stocks).

The subject of data set [4] is wt Oplophorus 157-169 peptide. The data set is described as follows: Relative specific activity in HEK293T lysates (Example 143). The settings on record: averages of Vmax and Bmax normalized to NanoLuc. Type of data set: biochemical. How it is done:
Each clone was inserted into pFN21A HaloTag® CMV Flexi® Vector (Promega G2821), and lysates were prepared as follows: 3 ml HEK293T cells that have been diluted to a concentration of 200,000 cells/ml (600,000 cells total) were plated into each well of a 6-well plate and grown overnight at 37° C. in a CO2 incubator. The following day transfection complexes of each DNA were prepared by combining […] of DNA, Opti-MEM® (Life Technologies 11058-021) to a final volume of 310 μl and 20 μl of FuGENE® HD (Promega E231a). The transfection complexes were incubated for 20 minutes and then 150 μl of each complex added in duplicate to cells. The cells were grown overnight 37° C. in a CO2 incubator. The following day, the cells were washed cells with DPBS (Life Technologies 14190-144), and 1 ml fresh DPBS added. Cells were frozen to lyse and then thawed for testing. Duplicate transfection reactions lysates were combined.
In order to compare the specific activities of Nluc (full length enzyme) to wt Oplophorusl-156 and NLpoly11S in combination with wt Oplophorus 157-169 peptide (binary proteins), substrate titrations were run for all of the samples, but for the binary samples substrate titrations were run at multiple peptide concentrations. Using this format, it was possible to calculate a Vmax value for Nluc and both Vmax and Bmax values for NLpoly11S and wt Oplophorus 1-156. Three separate experiments were run using this format and Vmax and Bmax values were normalized to the Vmax of NanoLuc. Relative specific activities (calculated as averages of Vmax and Bmax) are normalized to NanoLuc.

[5] abbreviates: high purity (>95%) peptides, 5 nM NLpoly11S, 500 nM NLpep114 (Example 137).

Take `COc1cc2c(cc1-c1c(C)noc1C)ncc1[nH]c(=O)n([C@H](C)c3ccccn3)c12` [IBET-151]: the “Time within which the decline in luminescence occurs” value at BRD4/Histone H3.3 (0-500 nM IBET-151, time course) is at most 3 h. Moreover, at BRD4/Histone H3.3 (0 to 10 μM, 4 h at 37° C.), the “Effect on luminescence of NLpoly11S-BRD4 / Histone H3.3-NLpep114” value is listed as “dose-dependent decline in luminescence”.
As to BC21: MVSGWRLFKKIS-GGSGGGGSGG-Fluc, the “Relative brightness of construct (Fluc and NLpep86 signals)” value in the data set with HELA cells is “brightest”.
Take BC26: MVSGWRLFKKIS-GGSGGGGSGG-Fluc-CP: the “Relative brightness of construct (Fluc and NLpep86 signals)” value in the data set with HELA cells is on record as “least bright”.
In the case of “DAB-GWALFKK ({Dabcyl′}-GWALFKK) [Dabcyl-GWALFKK]”, the “Background luminescence generated by NLpoly11S in the absence of other luminogenic peptide” value with NLpoly11S [1] is “reduce the background luminescence generated by NLpoly11S”.
The same measure, in the same setting: then GWALFKK, with “reduce the background luminescence generated by NLpoly11S”.
On to “NLpep88: NLpep78 with Gly as 6th residue instead of Arg, HT fusion lysate (MNVSGWGLFKKISN; also: HT fusion (lysate))”, for which the “Luminescence with NLpoly 5P” value in the data set on NLpoly 5P is recorded as “no increase in luminescence above 5P alone at lower concentrations”.
As to NVSGWRLFKKISN [NLPep78], in the data set with NLpoly11S [2], the “Binding affinity to NLpoly11S: synthetic vs N- or C-terminal HaloTag fusion” value is “not found to change significantly” and the “Bmax with NLpoly11S when NLPep at the C-terminus of HaloTag” value was “reduced”.
On the same counts, the results for NVTGYRLFKKISN [NLPep79] are “not found to change significantly” and “reduced”.
Regarding VSGWALFKKIS [Ala-162], the “Signal of dark peptide with NLpoly11S on its own” value in the data set on NLpoly11S and NLpep114 (5 nM NLpoly11S) was “subtle at best”. Besides, the “Inhibition of binding between NLpoly11S and NLpep114” value with NLpoly11S and NLpep114 (setting [5]) is “dose-dependent”; with NLpoly11S and NLpep114 (high purity (>95%) peptides, 5 nM NLpoly11S, 500 nM NLpep114 (Example 137), listed as Ala peptide), “most potent as an inhibitor”. Further, the “Inhibition of generation of luminescence by CP Nluc” value in data set [3] is listed as over 2 logs.
Turning to VSGWQLFKKIS [Gln-162], the “Signal of dark peptide with NLpoly11S on its own” value in the data set on NLpoly11S and NLpep114 (5 nM NLpoly11S) is listed as “produces a signal on its own in a dose-dependent manner”. Besides, the “Inhibition of binding between NLpoly11S and NLpep114” value is listed as “dose-dependent” in the data set on NLpoly11S and NLpep114 (array peptides, 50 nM NLpoly11S, 7.5 μM NLpep114 (Example 136)); “dose-dependent” with NLpoly11S and NLpep114 (setting [5]). Further, the “Inhibition of generation of luminescence by CP Nluc” value in data set [3] is given as over 1 logs.
For VTGWALFEEIL, the “Luminescence relative to background (NLpoly11S alone; no peptide control)” value with NLpoly11S [1] is “induce luminescence over background”.
For VTGYALFEEIL, the “Luminescence relative to background (NLpoly11S alone; no peptide control)” value with NLpoly11S [1] is listed as “induce luminescence over background”.

B1: NanoLuc: full-length NanoLuc luciferase (Promega), SEQ ID NO: 2157 (protein)
chain: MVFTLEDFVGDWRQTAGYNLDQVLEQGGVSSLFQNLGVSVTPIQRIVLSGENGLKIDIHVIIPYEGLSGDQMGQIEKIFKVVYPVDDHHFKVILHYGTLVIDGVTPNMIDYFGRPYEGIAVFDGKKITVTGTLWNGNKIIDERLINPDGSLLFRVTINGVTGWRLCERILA
Turning to B1, the “Relative specific activity (*with wt 157-169 peptide)” value in data set [4] came out at 1.00.

B2: wt 1-156: Wild-Type Oplophorus Luciferase Residues 1-156 (protein)
chain: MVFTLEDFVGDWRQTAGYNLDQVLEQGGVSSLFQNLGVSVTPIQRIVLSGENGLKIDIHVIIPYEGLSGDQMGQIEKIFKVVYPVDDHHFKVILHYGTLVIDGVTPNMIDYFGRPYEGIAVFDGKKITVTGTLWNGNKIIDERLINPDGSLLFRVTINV
Turning to B2, in data set [4], the “Relative specific activity (*with wt 157-169 peptide)” value is 0.07*.
